Test results from ChEMBL document CHEMBL5729353, “Imidazopyridazine and imidazopyridine compounds and uses thereof” (2022).

Target: T1, Activin receptor type-1 (Homo sapiens, UniProt Q04771)
T1 sequence (Q04771 whole entry): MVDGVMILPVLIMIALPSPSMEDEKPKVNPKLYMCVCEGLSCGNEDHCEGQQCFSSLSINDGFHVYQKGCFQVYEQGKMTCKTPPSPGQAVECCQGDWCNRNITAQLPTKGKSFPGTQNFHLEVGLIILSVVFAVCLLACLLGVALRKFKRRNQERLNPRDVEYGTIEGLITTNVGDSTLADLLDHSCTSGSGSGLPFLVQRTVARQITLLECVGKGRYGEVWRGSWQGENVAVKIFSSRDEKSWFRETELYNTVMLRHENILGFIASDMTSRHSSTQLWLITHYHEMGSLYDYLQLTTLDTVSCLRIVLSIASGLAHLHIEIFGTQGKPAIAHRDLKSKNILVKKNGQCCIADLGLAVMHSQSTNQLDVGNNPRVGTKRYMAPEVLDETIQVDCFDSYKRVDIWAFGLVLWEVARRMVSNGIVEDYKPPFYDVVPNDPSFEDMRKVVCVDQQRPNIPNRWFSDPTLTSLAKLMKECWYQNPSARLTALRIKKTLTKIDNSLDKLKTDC
Experiment: The enzymatic assays were conducted in white 384-well polystyrene plates in a final volume of 8 μL. The inhibitors were serially diluted in DMSO and added to the plate wells prior to addition of the other reaction components. […] The final concentration of DMSO in the assay was 1% and the enzyme concentration was 0.5 nM for ALK2. […] The reaction was incubated at 25° C. for 1 hr and read on a PHERAstar FS plate reader (BMG Labtech). IC50 determination was performed by fitting percent control activity versus the log of the inhibitor concentration using the IDBS XLFit and GraphPad Prism 5.0 software.

**Q.** Which IC50 does the source give for `Cc1nn2c(-c3ccnc4cc(-c5ccncc5)ccc34)cnc2cc1-c1cnn(CC2CCNCC2)c1` here?
**A.** Its IC50 is < 1 nM.
